In patent publication US11603380B2 (Centre national de la recherche scientifique, priority 2018, dated 2023):
Read-outs that look alike come from different tables or passages of the source.

Key:
[1] = tested on: human cytomegalovirus (HCMV) (AD-169); assay: microbe, parasite or virus in culture; assay type: cell-based; conditions: read-out: EC50 HCMV (AD-169)
[2] = tested on: human cytomegalovirus (HCMV) (Davis); assay: microbe, parasite or virus in culture; assay type: cell-based; conditions: read-out: EC50 HCMV (Davis)
[3] = tested on: varicella-zoster virus (VZV) TK+ (OKA); assay: microbe, parasite or virus in culture; assay type: cell-based; conditions: read-out: EC50 VZV TK+ (OKA)
[4] = tested on: varicella-zoster virus (VZV) TK− (07/1); assay: microbe, parasite or virus in culture; assay type: cell-based; conditions: Human alphaherpesvirus 3, HEL, read-out: EC50 VZV TK− (07/1)
[5] = tested on: herpes simplex virus 1 (HSV-1) (KOS); assay: microbe, parasite or virus in culture; assay type: cell-based; conditions: read-out: EC50 HSV-1 (KOS)
[6] = tested on: HSV-2 (G); assay: microbe, parasite or virus in culture; assay type: cell-based, herpes simplex virus 2; conditions: read-out: EC50 HSV-2 (G)
[7] = tested on: HSV-1 (KOS ACV) TK−; assay: microbe, parasite or virus in culture; assay type: cell-based, herpes simplex virus 1
[8] = tested on: Vaccinia Virus; assay: microbe, parasite or virus in culture; assay type: cell-based; conditions: read-out: EC50 Vaccinia Virus
[9] = tested on: Feline Herpes Virus; assay: organism not typed; assay type: cell-based; conditions: read-out: EC50 Feline Herpes Virus
[10] = tested on: HSV-1, HSV-2, HSV-1 (TK−), VV, FHV; assay type: cell-based
[11] = tested on: HEL cell cultures
[12] = in vitro; conditions: human
[13] = tested on: HEL cells; conditions: read-out: Cytotoxicity CC50; concentration reducing cell growth by 50%; HCMV/VZV table
[14] = Human betaherpesvirus 5, AD169, HEL
[15] = Human alphaherpesvirus 1, read-out: EC50 HSV-1 (KOS ACV) TK−
[16] = read-out: EC50 HSV-1 (KOS ACV) TK−

| Compound | EC50 [1, 14] | EC50 ([2]; Human betaherpesvirus 5, HEL) | EC50 ([3]; Human alphaherpesvirus 3, HEL) | EC50 [4] | EC50 ([5]; Human alphaherpesvirus 1, HEL) | EC50 ([6]; Human alphaherpesvirus 2, HEL) | EC50 [7, 15] | EC50 ([8]; Orthopoxvirus vaccinia, HEL) | EC50 [9] | activity level against HSV-1, HSV-2, HSV-1 (TK−), VV, FHV [10] | Cytotoxicity MCC ([11]; human) | CC50 at 3 days [12] | EC50 [1] | EC50 [2] | EC50 [3] | EC50 [5] | EC50 [6] | EC50 [7, 16] | EC50 [8] | Cytotoxicity MCC [11] | other results |
| --- | --- | --- | --- | --- | --- | --- | --- | --- | --- | --- | --- | --- | --- | --- | --- | --- | --- | --- | --- | --- | --- |
| CC(=O)OCC(=CCP(=O)(OCOC(=O)C(C)(C)C)OCOC(=O)C(C)(C)C)COc1cc(N)nc(N)n1 (mixture of isomers) [Compound (4), [[(Z/E)-3-(acetoxymethyl)-4-(2,6-diaminopyrimidin-4-yl)oxy-but-2′-enyl]-(2,2-dimethylpropanoyloxymethoxy)phosphoryl]oxymethyl 2,2-dimethylpropanoate] | 8.56 µM | 4.06 µM | 0.14 µM | 0.12 µM | 0.6 µM | 1.1 µM | 0.6 µM | 2.9 µM | > 100 µM | micromolar and sub-micromolar activities | 100 µM | 2.02 µM | – | – | – | – | – | – | – | – | – |
| CCCCCCCCCCCCCCCCOCCCOP(=O)(CC=C(COC(C)=O)COc1cc(Cl)nc(N)n1)OCOC(=O)OC(C)C (mixture of isomers) [Compound (8), [(E/Z)-2′-[(2-amino-6-chloro-pyrimidin-4-yl)oxymethyl]-4-[3-hexadecoxypropoxy(isopropoxycarbonyloxymethoxy)phosphoryl]but-2′-enyl]acetate] | – | – | – | – | – | – | – | – | > 100 µM | – | – | – | > 20 µM | 13.1 µM | 48.9 µM | > 100 µM | > 100 µM | > 100 µM | > 100 µM | 100 µM | CC50 [13]: 5.01 µM |
| CC(C)(C)C(=O)OCOP(=O)(C/C=C/COc1cc(N)nc(N)n1)OCOC(=O)C(C)(C)C [Compound (1), [[(E)-4-(2,6-diaminopyrimidin-4-yl)oxybut-2′-enyl]-(2,2-dimethylpropanoyloxymethoxy)phosphoryl]oxymethyl 2,2-dimethylpropanoate] | 44.7 µM | 44.7 µM | 2.04 µM | 2.32 µM | 13.4 µM | 13.4 µM | 13.4 µM | 32.5 µM | > 100 µM | micromolar and sub-micromolar activities | >100 µM | 5.1 µM | – | – | – | – | – | – | – | – | – |
| CCCCCCCCCCCCCCCCOCCCOP(=O)(C/C=C/COc1cc(N)nc(N)n1)OCOC(=O)OC(C)C (stereo not drawn) [Compound (2), [[(E)-4-(2,6-diaminopyrimidin-4-yl)oxybut-2′-enyl]-(3-hexadecoxypropoxy)phosphoryl]oxymethyl isopropyl carbonate] | – | – | – | – | – | – | – | – | > 100 µM | – | – | – | 7.08 µM | 7.26 µM | 0.17 µM | > 100 µM | > 100 µM | > 100 µM | > 100 µM | >100 µM | CC50 [13]: 14.5 µM |
| CC(C)OC(=O)OCOP(=O)(C/C=C/COc1cc(N)nc(N)n1)OCOC(=O)OC(C)C [Compound (3), [[(E)-4-(2,6-diaminopyrimidin-4-yl)oxybut-2′-enyl]-(isopropoxycarbonyloxymethoxy)phosphoryl]oxymethyl isopropyl carbonate] | 44.7 µM | 36.6 µM | 0.86 µM | 1.25 µM | 3.75 µM | 1.85 µM | 5.75 µM | > 100 µM | > 100 µM | micromolar and sub-micromolar activities | >100 µM | 99 µM | – | – | – | – | – | – | – | – | – |
| [(E/Z)-2-[[2-[bis(tert-butoxycarbonyl)amino]-6-methoxy-pyrimidin-4-yl]oxymethyl]-4-[3-hexadecoxypropoxy(isopropoxycarbonyloxymethoxy)phosphoryl]but-2′-enyl]acetate [Compound (7)] | – | – | – | – | – | – | – | – | > 100 µM | – | – | – | > 20 µM | 8.94 µM | > 20 µM | > 100 µM | > 100 µM | > 100 µM | > 100 µM | 100 µM | CC50 [13]: 1.29 µM |
